# Experimental data taken from the supplement of paper PMC10307832.
# Legend:
# Assay in all cases: relative viability (nuclei count vs DMSO), 5 days (fraction); higher = more cells survive
# BMX-IN-1 + Bortezomib = compound: C=CC(=O)Nc1cc(-n2c(=O)ccc3cnc4ccc(-c5ccc(NS(C)(=O)=O)cc5)cc4c32)ccc1C [BMX-IN-1] + CC(C)C[C@H](NC(=O)[C@H](Cc1ccccc1)NC(=O)c1cnccn1)B(O)O [Bortezomib] (partner 0.002 µM)
# Procedure, shortened: (§1)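 For relative viability, nuclei counts in treated wells were divided by those in vehicle wells. Lung cancer cell lines had been pin-tool dosed in 1536-well plates the day after seeding and cultured for 5 days, then fixed and stained in one step (final 0.05% Triton X-100, 1% formaldehyde, 1 ug/ml Hoechst) and imaged at 4×. Doses were one drug alone or a fixed anchor-drug dose plus five library-drug doses (not always all listed) in √10 steps, and values are duplicate-plate medians.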
# PAC-1 + Luminespib = compound: C=CCc1cccc(/C=N/NC(=O)CN2CCN(Cc3ccccc3)CC2)c1O [PAC-1] + CCNC(=O)c1noc(-c2cc(C(C)C)c(O)cc2O)c1-c1ccc(CN2CCOCC2)cc1 [Luminespib] (partner 0.01 µM)
# Procedure, shortened: as §1
# Ibrutinib + Pemetrexed = compound: C=CC(=O)N1CCC[C@@H](n2nc(-c3ccc(Oc4ccccc4)cc3)c3c(N)ncnc32)C1 [Ibrutinib] + Nc1nc2[nH]cc(CCc3ccc(C(=O)N[C@@H](CCC(=O)O)C(=O)O)cc3)c2c(=O)[nH]1 [Pemetrexed] (partner 0.2 µM)
# Procedure, shortened: as §1
# BMX-IN-1 + Luminespib = compound: C=CC(=O)Nc1cc(-n2c(=O)ccc3cnc4ccc(-c5ccc(NS(C)(=O)=O)cc5)cc4c32)ccc1C [BMX-IN-1] + CCNC(=O)c1noc(-c2cc(C(C)C)c(O)cc2O)c1-c1ccc(CN2CCOCC2)cc1 [Luminespib] (partner 0.01 µM)
# Procedure, shortened: as §1
Cell Line,relative viability (BMX-IN-1 + Bortezomib; first compound 0.02 µM),relative viability (BMX-IN-1 + Bortezomib; first compound 0.2 µM),relative viability (BMX-IN-1 + Bortezomib; first compound 0.6325 µM),relative viability (BMX-IN-1 + Bortezomib; first compound 2 µM),relative viability (PAC-1 + Luminespib; first compound 0.02 µM),relative viability (PAC-1 + Luminespib; first compound 0.06325 µM),relative viability (PAC-1 + Luminespib; first compound 0.2 µM),relative viability (PAC-1 + Luminespib; first compound 2 µM),relative viability (Ibrutinib + Pemetrexed; first compound 0.005 µM),relative viability (Ibrutinib + Pemetrexed; first compound 0.01581 µM),relative viability (Ibrutinib + Pemetrexed; first compound 0.05 µM),relative viability (Ibrutinib + Pemetrexed; first compound 0.1581 µM),relative viability (Ibrutinib + Pemetrexed; first compound 0.5 µM),relative viability (BMX-IN-1 + Luminespib; first compound 0.02 µM),relative viability (BMX-IN-1 + Luminespib; first compound 0.2 µM),relative viability (BMX-IN-1 + Luminespib; first compound 0.6325 µM),relative viability (BMX-IN-1 + Luminespib; first compound 2 µM)
NCI-H1703,0.257,0.329,0.337,0.242,,,,,,,,,,,,,
IA-LM,0.884,0.928,0.984,0.884,,,,,,,,,,,,,
NCI-H1944,,,,,0.766,0.685,0.765,0.701,0.624,0.514,0.643,0.518,0.629,0.812,0.729,0.728,0.706
NCI-H1623,,,,,0.465,0.473,0.515,0.499,,,,,,0.431,0.52,0.804,0.484
NCI-H1395,,,,,0.656,0.585,0.651,0.653,0.752,0.934,0.804,0.797,1.07,0.745,0.546,0.71,0.887
NCI-H2342,,,,,0.655,0.82,0.759,0.777,0.455,0.806,0.618,0.723,0.715,0.774,0.765,0.707,0.703
NCI-H2170,,,,,0.64,0.607,0.542,0.606,0.248,0.266,0.264,0.259,0.21,0.921,0.77,0.821,0.819
ABC-1,0.34,0.302,0.244,0.306,0.526,0.803,0.682,0.519,,,,,,0.586,0.571,0.359,0.322
NCI-H727,1,0.869,1.05,0.939,0.255,0.371,0.639,0.315,,,,,,0.33,0.366,0.343,0.243
NCI-H522,,,,,1.15,1.06,0.975,1.17,1.12,0.789,0.795,0.925,0.956,1.24,1.26,1.1,1.19
NCI-H1648,,,,,,,,,0.796,0.655,0.569,0.961,0.751,,,,
NCI-H358,,,,,0.411,0.404,0.32,0.265,0.165,0.18,,0.171,0.16,0.444,0.308,0.405,0.327
HCC-366,1.88,1.78,1.28,1.09,,,,,0.259,0.247,0.307,0.241,0.704,,,,
